Experiments:
[1] = biological target: T1, IRAK4 (Homo sapiens (Human), UniProt Q9NWZ3); test: IRAK4 phosphorylation cell assay (IL-1β-stimulated Karpas-299 cells); format: cell-based; details: IRAK4 auto-phosphorylation (pIRAK4 Thr345/Ser346) in IL-1β-stimulated Karpas-299 cells; geometric mean of at least 2 experiments
Experimental: IRAK4 Phosphorylation Cell Assay
The activation of IRAK4 by TLR or IL-1R ligands leads to IRAK4 auto-phosphorylation, which can be prevented by IRAK4 kinase inhibitors. The effect of IRAK4 inhibitor compounds on IRAK4 auto-phosphorylation was assessed in IL-1β-stimulated Karpas-299 cells as a measurement of cellular potency. Karpas-299 cells were cultured in RPMI 1640 (Gibco 61870-010) containing 10% FBS (Gibco #10270). Cells were plated at 2×10^4 cells per well in poly-D-lysine coated 384 well plates (Corning #356663) to which compounds had been added at various concentrations (10 point half log dose response with a final top concentration of 30 μM) using an Echo 655 (Labcyte Inc). Cells were centrifuged (250 g, 4 mins), incubated at 37° C. for 1 h, then stimulated with 22.7 ng/mL recombinant IL-1β (R&D Systems, #201-LB-025) at 37° C. for 10 mins, followed by fixation in 4% paraformaldehyde for 20 mins and permeabilization in ice-cold 70% MeOH in PBS for 30 mins. Cells were washed twice with phosphate-buffered saline (PBS) on a BlueWasher (BlueCatBio) then blocked with PBS containing 10% FBS for 20 mins. Blocking solution was removed with a BlueWasher and cells were stained with anti-pIRAK4 (Thr345/Ser346) (CST, #11927, 1:400) in blocking buffer with 0.05% Tween-20 for 1 h, then washed twice with PBS containing 0.05% Tween-20 on a BlueWasher, followed by staining with a Alexa 647-conjugated secondary anti-rabbit IgG antibody (CST, #4414, 1:2,000) and Hoechst 33342 (Sigma, 1:2,000) in blocking buffer with 0.05% Tween-20 for 30 mins. Finally, the cells were washed twice with PBS containing 0.05% Tween-20 and imaged on an ImageXpress Micro (Molecular Devices) with a 10× air objective using the appropriate filters. Images were analysed in Columbus (PerkinElmer) and the fluorescence intensity per cell from the secondary antibody was quantified. The quantified data were analysed in Genedata Screener 19 (Genedata AG). […] IC50 values are the geometric mean of at least 2 experiments.

[2] = biological target: T1, IRAK4; test: IRAK4 enzyme assay (mass spectrometry readout); format: biochemical; details: human recombinant IRAK4 0.2 nM, 3 mM ATP; geometric mean of at least 2 experiments
Experimental: Potency of IRAK4 Inhibitor Compounds in IRAK4 Enzyme Assay
The inhibitory activity of compounds against IRAK4 were determined in an enzymatic assay using mass spectrometry readout. Ten point half-log compound concentration response curves, with a top concentration of 1 μM or 10 μM, were generated from 10 mM stocks of compound solubilized in DMSO using an Echo 655 (Labcyte Inc) and added to 384 well assay plates (Greiner #781280). To the assay plates, 10 μL of human recombinant IRAK4 protein (Life Technologies #PV4002) diluted to a final concentration of 0.2 nM in assay buffer (50 mM Tris-HCl pH 7.4, 10 mM MgCl, 5 mM glutathione, 0.01% BSA, 3 mM ATP) was added. The enzyme was incubated with the compounds at room temperature for 15 minutes before a peptide substrate ([…], Innovagen custom synthesis, 10 mM in DMSO) was added to each well to a final concentration of 10 μM using an Echo 655 (Labcyte Inc). After two hours at room temperature, the reaction was stopped with 65 μL of 0.4% formic acid (Merck #33015). The unphosphorylated and phosphorylated peptide were measured by LC-MS/MS on a Waters TQ-S mass spectrometer. Peaks were integrated using the TargetLynx software and the ratios between phosphorylated and unphosphorylated peptides were calculated. Curves were fitted and compound potencies determined in Genedata Screener 19 (Genedata AG). IC50 values are the geometric mean of at least 2 experiments.

[3] = Human plasma protein binding, equilibrium dialysis (RED device); format: in vitro ADME; details: for fraction unbound at 18 h, 5 μM: human, plasma, pH 7.4
Description: Plasma protein binding may have important implications on the pharmacokinetic behaviour of drugs. This is especially true for highly bound drugs, where the fraction unbound (fu) drug in plasma is an important parameter in the interpretation of in-vivo experiments. Traditionally, there are several different techniques used to determine the extent of drug binding to plasma proteins and equilibrium dialysis is probably the most common.
This method describes our current automated equilibrium dialysis assay in human plasma using the RED (Rapid Equilibrium Dialysis) Device and Hamilton sample handling system, described in WernevikJ et al. (2020) “A Fully Integrated Assay Panel for Early Drug Metabolism and Pharmacokinetics Profiling” Assay. Drug. Dev. Technol 18:157-179; DOI 10.1089/adt.2020.970.
The assay generally runs over three days including delivery of results. The pooled compounds are diluted in plasma to 5 μM and added to the inner chamber of the RED device and a phosphate buffer (pH 7.4) to the surrounding chamber to allow equilibrium dialysis over a semipermeable membrane with a molecular weight cut off at 8 kDa. The 5 μM solutions are also used to establish compound stability in plasma and recovery (mass balance) in the RED devices, with sampling performed at both the 0 and 18 h timepoints. Low recovery indicates binding to the dialysis equipment or solubility issues.
After dialysis for 18 hours, plasma and buffer samples are prepared for analysis by liquid chromatography and mass spectrometry (LC/MSMS). A seven-point calibration curve in plasma, ranging from 1.4 nM to 7 μM, is used to quantify the samples. All samples including the calibration curve, also contain an internal standard (IS) to allow for normalization between variations in injection volume in the UPLC-MS/MS instrumentation.
Three quality controls (QCs) are used in each run. Warfarin with low fu (fu mean ˜1%) is used as a control in each pool. Propranolol (˜30%) and Metoprolol (˜90%) are placed randomly in each run. The controls are monitored in the “Manhattan tool” (Winiwarter et al. (2015) “Time dependent analysis of assay comparability: a novel approach to understand intra-and inter-site variability over time” J. Comput. Aided Mol. Des. 29:795-807; DOI10.1007/s10822-015-9836-5), that defines the acceptance criteria for the QCs as 2.58×standard deviation.

[4] = biological target: human cKit kinase (Homo sapiens (Human), UniProt P10721); test: cKit enzyme assay (LANCE, Eurofins CEREP); format: biochemical; details: human recombinant enzyme, 50 μM ATP; geometric mean of at least n=2, * = single experiment
Experimental: Potency of IRAK4 Inhibitor Compounds in cKit Enzyme Assay
Evaluation of the effects of the IRAK4 inhibitor compounds on the activity of the human cKit kinase quantified by measuring the phosphorylation of the substrate Ulight-TK peptide using a human recombinant enzyme and the LANCE® detection method at Eurofins CEREP, catalog item 3070, SOP no 1C768: The test compound, reference compound or water (control) are mixed with the enzyme (0.38 ng) in a buffer containing 40 mM Hepes/Tris (pH 7.4), 0.8 mM EGTA/Tris, 8 mM MgCl2, 1.6 mM DTT and 0.008% Tween 20. Thereafter, the reaction is initiated by adding 100 nM of the substrate Ulight-TK peptide and 50 μM ATP, and the mixture is incubated for 30 min at room temperature. For control basal measurements, the enzyme is omitted from the reaction mixture. Following incubation, the reaction is stopped by adding 13 mM EDTA. After 5 min, the anti-phopho-PT66 antibody labeled with europium chelate is added. After 60 more min, the fluorescence transfer is measured at lex=337 nm, lem=620 nm and lem=665 nm using a microplate reader (Envision, Perkin Elmer). The enzyme activity is determined by dividing the signal measured at 665 nm by that measured at 620 nm (ratio). The results are expressed as a percent inhibition of the control enzyme activity. The standard inhibitory reference compound is staurosporine, which is tested in each experiment at several concentrations to obtain an inhibition curve from which its IC50 value is calculated.
Data presented are the geometric mean of at least n=2, or as denoted by an*are obtained from a single experiment. […] Kinase selectivity can be a key determinant of clinical utility as off target toxicity can be reduced or eliminated.

T1 sequence (Q9NWZ3 whole entry): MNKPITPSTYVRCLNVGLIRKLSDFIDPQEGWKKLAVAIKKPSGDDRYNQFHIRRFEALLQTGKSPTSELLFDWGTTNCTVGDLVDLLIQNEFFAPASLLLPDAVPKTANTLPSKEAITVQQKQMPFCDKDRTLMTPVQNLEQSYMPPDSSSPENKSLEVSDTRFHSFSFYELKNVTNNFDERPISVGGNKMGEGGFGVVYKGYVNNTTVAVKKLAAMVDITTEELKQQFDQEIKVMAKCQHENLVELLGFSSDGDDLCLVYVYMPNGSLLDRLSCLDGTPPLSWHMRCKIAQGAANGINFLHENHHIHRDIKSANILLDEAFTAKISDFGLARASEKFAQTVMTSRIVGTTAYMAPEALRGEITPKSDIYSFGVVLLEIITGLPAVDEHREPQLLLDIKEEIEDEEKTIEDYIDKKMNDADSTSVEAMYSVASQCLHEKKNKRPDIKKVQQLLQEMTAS
Sequence of human cKit kinase (P10721 26-976): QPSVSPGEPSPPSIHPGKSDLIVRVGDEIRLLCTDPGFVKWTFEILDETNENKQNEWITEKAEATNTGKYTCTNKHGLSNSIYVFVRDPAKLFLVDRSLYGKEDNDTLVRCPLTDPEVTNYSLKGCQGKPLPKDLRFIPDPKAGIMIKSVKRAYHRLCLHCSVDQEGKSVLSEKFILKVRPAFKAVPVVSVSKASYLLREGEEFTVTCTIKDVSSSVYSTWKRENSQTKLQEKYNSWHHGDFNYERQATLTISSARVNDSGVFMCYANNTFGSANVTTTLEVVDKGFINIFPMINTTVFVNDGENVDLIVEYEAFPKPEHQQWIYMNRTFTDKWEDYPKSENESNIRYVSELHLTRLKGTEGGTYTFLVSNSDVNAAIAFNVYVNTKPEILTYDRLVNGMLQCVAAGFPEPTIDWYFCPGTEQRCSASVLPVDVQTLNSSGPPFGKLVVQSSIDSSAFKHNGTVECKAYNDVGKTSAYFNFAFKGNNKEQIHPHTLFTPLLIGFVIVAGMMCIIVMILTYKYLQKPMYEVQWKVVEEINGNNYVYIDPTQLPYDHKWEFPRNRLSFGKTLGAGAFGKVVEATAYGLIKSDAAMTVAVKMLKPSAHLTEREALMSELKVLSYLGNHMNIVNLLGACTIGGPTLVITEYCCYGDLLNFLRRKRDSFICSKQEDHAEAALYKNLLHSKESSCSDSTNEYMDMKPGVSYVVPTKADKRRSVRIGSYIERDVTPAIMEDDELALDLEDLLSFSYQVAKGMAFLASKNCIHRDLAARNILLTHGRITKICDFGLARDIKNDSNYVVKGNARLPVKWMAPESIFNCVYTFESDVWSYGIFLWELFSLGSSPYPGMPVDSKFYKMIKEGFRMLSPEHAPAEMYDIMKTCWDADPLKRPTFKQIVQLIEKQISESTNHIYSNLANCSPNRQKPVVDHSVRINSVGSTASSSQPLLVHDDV

Row | SMILES | IC50 [1] [µM] | IC50 [2] [µM] | Hu PPB (% free) ([3]; human plasma, 5 μM, dialysis 18 hours, single experiment or average of two or more) | IC50 [4] [µM] | fraction unbound at 18 h, 5 μM [3]
1 | COc1cc2nn([C@H]3CC[C@@]4(CC3)COC(=O)N4C)cc2cc1C(=O)Nc1cccn(C)c1=O [Example 20, 6-Methoxy-N-(1-methyl-2-oxo-1,2-dihydropyridin-3-yl)-2-((5s,8s)-1-methyl-2-oxo-3-oxa-1-azaspiro[4.5]decan-8-yl)-2H-indazole-5-carboxamide] | 0.128 | 0.0056 | 14 |  | 
2 | COc1cc2nn([C@H]3CC[C@H](n4cncn4)CC3)cc2cc1C(=O)Nc1cccn(C)c1=O [Example 26, 2-((1r,4r)-4-(1H-1,2,4-Triazol-1-yl)cyclohexyl)-6-methoxy-N-(1-methyl-2-oxo-1,2-dihydropyridin-3-yl)-2H-indazole-5-carboxamide] | 0.038 | 0.0022 |  | > 100 | 
3 | COc1cc2nn([C@H]3CC[C@H](n4ccnn4)CC3)cc2cc1C(=O)Nc1cccn(C)c1=O [Example 27, 2-((1r,4r)-4-(1H-1,2,3-Triazol-1-yl)cyclohexyl)-6-methoxy-N-(1-methyl-2-oxo-1,2-dihydropyridin-3-yl)-2H-indazole-5-carboxamide] | 0.039 | 0.0015 |  | > 100 | 
4 | COc1cc2nn([C@H]3CC[C@H](n4cc(C(C)(C)O)nn4)CC3)cc2cc1C(=O)Nc1cccn(C)c1=O [Example 30, 2-((1r,4r)-4-(4-(2-Hydroxypropan-2-yl)-1H-1,2,3-triazol-1-yl)cyclohexyl)-6-methoxy-N-(1-methyl-2-oxo-1,2-dihydropyridin-3-yl)-2H-indazole-5-carboxamide] | 0.022 | 0.001 |  | 6.9 | 
5 | COCCc1ccc(OCC(O)CNC(C)C)cc1 (stereo not drawn) [Metoprolol] |  |  |  |  | ~0.9
6 | CC(C)NCC(O)COc1cccc2ccccc12 (stereo not drawn) [Propranolol] |  |  |  |  | ~0.3
7 | CC(=O)CC(c1ccccc1)c1c(O)c2ccccc2oc1=O (stereo not drawn) [Warfarin] |  |  |  |  | ~0.01
